Data as given in the kinase profiling compilation of Christmann-Franck et al. (2016).

Columns and labels:
Test in all cases: KINOMEscan competition binding
Conditions in all cases: compound 1.0 µM
[1] = molecular target: MAPK4 (human) (UniProt P31152)
[2] = molecular target: NTRK2 (human) (UniProt Q16620)
[3] = molecular target: TYK2 JH1 catalytic (human) (UniProt P29597)
[4] = molecular target: RET (human) (UniProt P07949)
[5] = molecular target: PKN2 (human) (UniProt Q16513)
[6] = molecular target: BMPR1A (human) (UniProt P36894)
[7] = molecular target: MAP4K3 (human) (UniProt Q8IVH8)
[8] = molecular target: TAOK3 (human) (UniProt Q9H2K8)
[9] = molecular target: CDKL5 (human) (UniProt O76039)
[10] = test system: ABL1 (human), P00519 [M351T]
[11] = molecular target: CLK2 (human) (UniProt P49760)
[12] = molecular target: EPHB4 (human) (UniProt P54760)
[13] = molecular target: CSNK1A1 (human) (UniProt P48729)
[14] = molecular target: MUSK (human) (UniProt O15146)
[15] = molecular target: RPS6KA5 KD2 (human) (UniProt O75582)
[16] = molecular target: MAP2K5 (human) (UniProt Q13163)
[17] = molecular target: MAST1 (human) (UniProt Q9Y2H9)
[18] = molecular target: MAP3K13 (human) (UniProt O43283)
[19] = molecular target: STK33 (human) (UniProt Q9BYT3)
[20] = molecular target: TIE1 (human) (UniProt P35590)
[21] = molecular target: EPHB2 (human) (UniProt P29323)
[22] = test system: ABL1 (human), P00519 [Y253F]
[23] = test system: EGFR (human), P00533 [G719C]
[24] = molecular target: FGFR2 (human) (UniProt P21802)
[25] = molecular target: AXL (human) (UniProt P30530)
[26] = molecular target: MAPKAPK5 (human) (UniProt Q8IW41)
[27] = molecular target: HUNK (human) (UniProt P57058)
[28] = molecular target: CaMK1 (human) (UniProt Q14012)
[29] = molecular target: CDC42BPA (human) (UniProt Q5VT25)
[30] = molecular target: GSK3A (human) (UniProt P49840)
[31] = molecular target: MAP3K6 (human) (UniProt O95382)
[32] = molecular target: MARK3 (human) (UniProt P27448)
[33] = test system: EGFR (human), P00533 [746-750 del]
[34] = molecular target: MKNK1 (human) (UniProt Q9BUB5)
[35] = molecular target: AURKC (human) (UniProt Q9UQB9)
[36] = molecular target: CDK7 (human) (UniProt P50613)
[37] = molecular target: ROCK1 (human) (UniProt Q13464)
[38] = molecular target: CDK14 (human) (UniProt O94921)
[39] = molecular target: IRAK1 (human) (UniProt P51617)
IRAK1 (human), sequence (P51617 whole entry, looked up): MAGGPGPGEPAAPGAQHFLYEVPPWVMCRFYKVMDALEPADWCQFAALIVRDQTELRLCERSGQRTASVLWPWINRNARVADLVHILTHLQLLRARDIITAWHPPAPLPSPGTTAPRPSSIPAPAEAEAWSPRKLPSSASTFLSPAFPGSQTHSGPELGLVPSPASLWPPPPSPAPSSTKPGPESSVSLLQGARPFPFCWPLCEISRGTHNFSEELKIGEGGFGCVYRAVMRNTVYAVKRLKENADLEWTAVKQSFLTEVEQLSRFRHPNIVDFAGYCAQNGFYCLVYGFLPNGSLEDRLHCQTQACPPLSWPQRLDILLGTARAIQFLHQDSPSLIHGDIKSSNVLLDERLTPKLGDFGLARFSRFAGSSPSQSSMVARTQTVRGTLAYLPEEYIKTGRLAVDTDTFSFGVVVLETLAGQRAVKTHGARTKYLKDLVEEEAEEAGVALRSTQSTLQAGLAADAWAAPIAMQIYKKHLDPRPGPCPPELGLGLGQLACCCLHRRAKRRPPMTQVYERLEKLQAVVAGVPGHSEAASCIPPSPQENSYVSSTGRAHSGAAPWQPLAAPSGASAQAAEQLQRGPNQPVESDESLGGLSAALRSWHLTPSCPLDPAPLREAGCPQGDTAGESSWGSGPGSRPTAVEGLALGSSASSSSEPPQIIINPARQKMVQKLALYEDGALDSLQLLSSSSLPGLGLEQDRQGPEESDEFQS

CDK14 (human), sequence (O94921 whole entry, looked up): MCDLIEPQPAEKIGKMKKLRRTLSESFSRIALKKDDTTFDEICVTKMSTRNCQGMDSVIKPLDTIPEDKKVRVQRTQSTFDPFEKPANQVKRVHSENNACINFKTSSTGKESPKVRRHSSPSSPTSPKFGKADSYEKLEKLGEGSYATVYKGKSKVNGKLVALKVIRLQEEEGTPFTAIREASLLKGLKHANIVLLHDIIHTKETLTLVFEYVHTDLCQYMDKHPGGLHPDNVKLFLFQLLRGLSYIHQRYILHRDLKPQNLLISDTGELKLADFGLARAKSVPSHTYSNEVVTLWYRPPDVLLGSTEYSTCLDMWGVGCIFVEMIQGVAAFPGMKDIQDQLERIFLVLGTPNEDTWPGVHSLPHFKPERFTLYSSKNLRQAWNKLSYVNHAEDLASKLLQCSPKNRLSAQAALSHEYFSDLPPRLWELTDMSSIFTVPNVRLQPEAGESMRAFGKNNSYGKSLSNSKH
TYK2 JH1 catalytic (human), sequence (P29597 whole entry, looked up): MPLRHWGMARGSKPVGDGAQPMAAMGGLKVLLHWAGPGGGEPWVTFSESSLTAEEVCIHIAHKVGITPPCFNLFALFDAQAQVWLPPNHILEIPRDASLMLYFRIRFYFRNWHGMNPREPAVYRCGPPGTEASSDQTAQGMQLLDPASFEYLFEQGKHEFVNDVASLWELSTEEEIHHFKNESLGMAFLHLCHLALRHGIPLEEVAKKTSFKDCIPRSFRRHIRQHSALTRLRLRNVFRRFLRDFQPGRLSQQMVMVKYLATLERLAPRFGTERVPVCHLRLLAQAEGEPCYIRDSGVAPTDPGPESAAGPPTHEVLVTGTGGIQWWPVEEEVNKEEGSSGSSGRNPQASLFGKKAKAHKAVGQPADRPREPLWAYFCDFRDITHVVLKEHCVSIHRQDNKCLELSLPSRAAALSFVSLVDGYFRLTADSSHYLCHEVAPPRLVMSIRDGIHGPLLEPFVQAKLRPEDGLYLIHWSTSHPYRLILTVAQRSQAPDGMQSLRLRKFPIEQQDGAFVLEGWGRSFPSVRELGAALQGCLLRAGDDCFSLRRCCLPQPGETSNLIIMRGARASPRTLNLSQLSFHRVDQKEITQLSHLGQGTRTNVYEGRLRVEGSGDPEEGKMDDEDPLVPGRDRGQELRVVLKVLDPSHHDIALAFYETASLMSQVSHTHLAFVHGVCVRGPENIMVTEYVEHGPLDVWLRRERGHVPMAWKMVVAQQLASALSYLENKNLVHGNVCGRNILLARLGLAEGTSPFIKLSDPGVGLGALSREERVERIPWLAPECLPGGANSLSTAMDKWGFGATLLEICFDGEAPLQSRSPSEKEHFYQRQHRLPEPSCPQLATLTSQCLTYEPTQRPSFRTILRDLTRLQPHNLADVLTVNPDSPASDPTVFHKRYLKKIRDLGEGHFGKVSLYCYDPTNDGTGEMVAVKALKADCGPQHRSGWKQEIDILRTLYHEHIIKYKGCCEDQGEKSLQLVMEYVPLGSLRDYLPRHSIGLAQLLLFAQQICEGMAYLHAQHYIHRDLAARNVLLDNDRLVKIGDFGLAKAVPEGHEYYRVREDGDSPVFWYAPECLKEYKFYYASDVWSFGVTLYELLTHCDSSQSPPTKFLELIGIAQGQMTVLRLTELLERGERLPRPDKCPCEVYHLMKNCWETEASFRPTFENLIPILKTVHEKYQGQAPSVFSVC
AXL (human), sequence (P30530 whole entry, looked up): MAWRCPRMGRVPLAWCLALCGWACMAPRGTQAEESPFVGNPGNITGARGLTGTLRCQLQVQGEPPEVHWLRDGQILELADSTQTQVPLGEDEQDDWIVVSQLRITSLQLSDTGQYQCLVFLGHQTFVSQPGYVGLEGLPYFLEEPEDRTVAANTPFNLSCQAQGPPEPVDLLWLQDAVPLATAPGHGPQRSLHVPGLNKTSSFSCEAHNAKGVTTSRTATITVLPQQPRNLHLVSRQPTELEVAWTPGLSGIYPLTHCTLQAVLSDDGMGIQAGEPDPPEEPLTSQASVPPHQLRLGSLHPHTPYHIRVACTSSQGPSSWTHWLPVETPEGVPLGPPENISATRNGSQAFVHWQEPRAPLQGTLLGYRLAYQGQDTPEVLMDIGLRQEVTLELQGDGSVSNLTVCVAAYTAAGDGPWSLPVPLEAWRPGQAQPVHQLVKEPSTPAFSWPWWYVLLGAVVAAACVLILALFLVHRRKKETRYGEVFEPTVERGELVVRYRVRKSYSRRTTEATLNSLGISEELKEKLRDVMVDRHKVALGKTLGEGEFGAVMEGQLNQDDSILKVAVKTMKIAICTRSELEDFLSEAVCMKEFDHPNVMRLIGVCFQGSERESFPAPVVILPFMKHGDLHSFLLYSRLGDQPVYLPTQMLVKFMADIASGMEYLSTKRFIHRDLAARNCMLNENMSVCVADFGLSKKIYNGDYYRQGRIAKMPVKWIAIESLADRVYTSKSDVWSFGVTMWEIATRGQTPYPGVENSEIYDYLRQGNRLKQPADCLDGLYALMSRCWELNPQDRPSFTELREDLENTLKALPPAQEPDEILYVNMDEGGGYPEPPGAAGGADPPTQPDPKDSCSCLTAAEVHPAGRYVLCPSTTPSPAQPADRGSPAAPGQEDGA
CaMK1 (human), sequence (Q14012 whole entry, looked up): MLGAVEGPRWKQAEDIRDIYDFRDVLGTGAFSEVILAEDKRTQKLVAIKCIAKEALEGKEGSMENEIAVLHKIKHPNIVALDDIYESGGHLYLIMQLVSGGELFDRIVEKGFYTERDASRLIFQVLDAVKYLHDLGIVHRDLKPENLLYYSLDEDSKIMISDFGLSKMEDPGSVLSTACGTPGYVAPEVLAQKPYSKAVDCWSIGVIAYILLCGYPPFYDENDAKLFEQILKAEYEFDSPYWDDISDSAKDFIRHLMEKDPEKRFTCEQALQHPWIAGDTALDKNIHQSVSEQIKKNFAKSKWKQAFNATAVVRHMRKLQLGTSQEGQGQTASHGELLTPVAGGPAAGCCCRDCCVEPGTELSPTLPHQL
ROCK1 (human), sequence (Q13464 whole entry, looked up): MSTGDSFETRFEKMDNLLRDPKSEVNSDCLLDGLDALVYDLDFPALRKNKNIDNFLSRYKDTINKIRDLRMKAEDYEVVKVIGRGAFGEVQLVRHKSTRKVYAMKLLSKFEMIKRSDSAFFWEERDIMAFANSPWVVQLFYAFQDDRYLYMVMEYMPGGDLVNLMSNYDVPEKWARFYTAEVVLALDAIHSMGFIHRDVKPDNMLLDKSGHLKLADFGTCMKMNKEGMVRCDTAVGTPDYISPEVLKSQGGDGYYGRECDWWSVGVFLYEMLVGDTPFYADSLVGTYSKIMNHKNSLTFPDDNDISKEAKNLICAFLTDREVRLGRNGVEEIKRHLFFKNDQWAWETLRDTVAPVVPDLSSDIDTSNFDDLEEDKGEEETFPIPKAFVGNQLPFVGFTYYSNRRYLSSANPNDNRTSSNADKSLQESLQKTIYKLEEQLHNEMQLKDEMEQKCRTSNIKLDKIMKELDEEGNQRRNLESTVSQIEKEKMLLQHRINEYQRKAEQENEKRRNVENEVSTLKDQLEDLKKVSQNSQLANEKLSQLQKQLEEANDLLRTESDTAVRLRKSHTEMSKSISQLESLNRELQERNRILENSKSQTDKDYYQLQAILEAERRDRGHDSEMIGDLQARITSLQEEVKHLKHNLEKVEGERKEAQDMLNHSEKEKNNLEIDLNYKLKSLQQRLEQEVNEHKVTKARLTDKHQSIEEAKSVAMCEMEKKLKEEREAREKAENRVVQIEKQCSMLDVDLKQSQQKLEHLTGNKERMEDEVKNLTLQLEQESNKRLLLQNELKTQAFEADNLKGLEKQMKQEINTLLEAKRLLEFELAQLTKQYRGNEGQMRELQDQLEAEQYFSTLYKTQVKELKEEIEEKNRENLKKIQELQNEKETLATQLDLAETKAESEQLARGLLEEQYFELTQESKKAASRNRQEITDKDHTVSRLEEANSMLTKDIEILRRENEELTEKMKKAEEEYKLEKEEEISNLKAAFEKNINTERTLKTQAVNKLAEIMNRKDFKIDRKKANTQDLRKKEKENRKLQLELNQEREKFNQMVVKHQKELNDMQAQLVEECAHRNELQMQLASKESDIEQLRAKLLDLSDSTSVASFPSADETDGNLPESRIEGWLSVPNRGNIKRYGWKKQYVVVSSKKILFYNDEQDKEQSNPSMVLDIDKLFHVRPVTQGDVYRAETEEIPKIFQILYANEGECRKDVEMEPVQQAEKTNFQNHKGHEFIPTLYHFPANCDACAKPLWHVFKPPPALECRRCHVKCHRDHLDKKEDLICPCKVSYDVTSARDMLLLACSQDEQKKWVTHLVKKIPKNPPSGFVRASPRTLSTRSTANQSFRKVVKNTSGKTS

SMILES: CNc1nc(Nc2ccc(C(=O)N3CCOCC3)cc2OC)ncc1Cl
- kinase still bound, per cent of control [1]: 100%
- kinase still bound, per cent of control [2]: 93%
- kinase still bound, per cent of control [3]: 73%
- kinase still bound, per cent of control [4]: 96%
- kinase still bound, per cent of control [5]: 79%
- kinase still bound, per cent of control [6]: 100%
- kinase still bound, per cent of control [7]: 100%
- kinase still bound, per cent of control [8]: 100%
- residual activity [9]: 94%
- kinase still bound, per cent of control [10]: 97%
- kinase still bound, per cent of control [11]: 84%
- kinase still bound, per cent of control [12]: 100%
- kinase still bound, per cent of control [13]: 100%
- kinase still bound, per cent of control [14]: 100%
- kinase still bound, per cent of control [15]: 54%
- kinase still bound, per cent of control [16]: 100%
- kinase still bound, per cent of control [17]: 93%
- kinase still bound, per cent of control [18]: 100%
- kinase still bound, per cent of control [19]: 38%
- kinase still bound, per cent of control [20]: 100%
- kinase still bound, per cent of control [21]: 100%
- kinase still bound, per cent of control [22]: 69%
- kinase still bound, per cent of control [23]: 100%
- kinase still bound, per cent of control [24]: 100%
- kinase still bound, per cent of control [25]: 97%
- kinase still bound, per cent of control [26]: 100%
- kinase still bound, per cent of control [27]: 98%
- kinase still bound, per cent of control [28]: 96%
- kinase still bound, per cent of control [29]: 97%
- kinase still bound, per cent of control [30]: 100%
- kinase still bound, per cent of control [31]: 100%
- kinase still bound, per cent of control [32]: 98%
- kinase still bound, per cent of control [33]: 88%
- kinase still bound, per cent of control [34]: 88%
- kinase still bound, per cent of control [35]: 88%
- residual activity [36]: 57%
- kinase still bound, per cent of control [37]: 100%
- residual activity [38]: 100%
- kinase still bound, per cent of control [39]: 100%
